Results: patent US10781224B2, “Bis(oxymethyl)phosphinic acid and biogenic metal salts thereof as regulators of plant growth and development” (priority 2016, dated 2020)

Experiments:
Type in all cases: in vivo
[1] = system: winter wheat (Vershin variety); assay: Winter wheat seed treatment with BHMPA salts: germination energy and germination rate
Summary of the method: (§1)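 Corn, winter wheat and rice seeds (50 per dish, on filter paper) were soaked for 1 h in BHMPA or its metal salts at 1·10^−6-1·10^−12%, with water as control. Germination energy was read on day 4 and germination rate on day 8 for wheat and day 7 for rice and corn, following GOST 12038-84, as the mean of four replicates.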

[2] = system: corn (Krasnodar 385 MV variety); assay: Corn seed treatment with BHMPA salts: germinating power
Summary of the method: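 Seeds (50 per Petri dish on two layers of filter paper) soaked 1 h in BHMPA or its Ca, Mg, Na, Co, Mn, Cu or Zn salts at 1·10^−6-1·10^−12%, with water controls. Germination energy read on day 4, germination on day 8 (wheat) or day 7 (rice, corn), as % means of four replicates. Germinating power taken as root and sprout length plus wet and dry mass per 100 seedlings.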

rice (Diamant variety) = assay: Rice seed treatment with BHMPA salts: germination energy and germination rate
Summary of the method: as §1

[3] = winter wheat Vershin, 1·10^−6% solution
[4] = winter wheat Vershin, 1·10^−7% solution
[5] = winter wheat Vershin, 1·10^−8% solution
[6] = winter wheat Vershin, 1·10^−9% solution
[7] = winter wheat Vershin, 1·10^−10% solution
[8] = winter wheat Vershin, 1·10^−11% solution
[9] = winter wheat Vershin, 1·10^−12% solution
[10] = winter wheat, comparative study vs Melaphen, 1·10^−9% solution
[11] = corn seeds, solution concentration 1 · 10^−6%, sodium salt of BHMPA
[12] = corn seeds, solution concentration 1 · 10^−7%, sodium salt of BHMPA
[13] = corn seeds, solution concentration 1 · 10^−8%, sodium salt of BHMPA
[14] = corn seeds, solution concentration 1 · 10^−9%, sodium salt of BHMPA
[15] = corn seeds, solution concentration 1 · 10^−10%, sodium salt of BHMPA
[16] = corn seeds, solution concentration 1 · 10^−11%, sodium salt of BHMPA
[17] = corn seeds, solution concentration 1 · 10^−12%, sodium salt of BHMPA
[18] = rice seed treatment, solution 1 · 10^−11%
[19] = seed treatment, concentration 1 · 10^−6%
[20] = seed treatment, concentration 1 · 10^−7%
[21] = seed treatment, concentration 1 · 10^−8%
[22] = seed treatment, concentration 1 · 10^−9%
[23] = seed treatment, concentration 1 · 10^−10%
[24] = seed treatment, concentration 1 · 10^−11%
[25] = seed treatment, concentration 1 · 10^−12%

O=P([O-])(CO)CO.[Na+] [Na-salt, Sodium BHMPA Salt]
Germination energy [1, 3]: 84.4% | Germination rate [1, 3]: 86.0% | Germination energy [1, 4]: 86.7% | Germination rate [1, 4]: 89.0% | Germination energy [1, 5]: 90.2% | Germination rate [1, 5]: 94.0% | Germination energy [1, 6]: 92.3% | Germination rate [1, 6]: 95.3% | Germination energy [1, 7]: 88.4% | Germination rate [1, 7]: 92.0% | Germination energy [1, 8]: 85.0% | Germination rate [1, 8]: 88.0% | Germination energy [1, 9]: 83.2% | Germination rate [1, 9]: 86.3% | Germination energy [1, 10]: 87.3% | Germination rate [1, 10]: 93.7% | optimum concentration for treating corn seeds before sowing ([2]; corn): 1·10^−10% | Length, root [2, 11]: 4.5 cm | Length, root, + % to control [2, 11]: −4% | Length, sprout [2, 11]: 2.4 cm | Length, sprout, + % to control [2, 11]: −14% | Mass, dry, root [2, 11]: 0.99 g/100 plantlings | Mass, dry, root, + % to control [2, 11]: −19% | Mass, dry, sprout [2, 11]: 0.69 g/100 plantlings | Mass, dry, sprout, + % to control [2, 11]: −4% | Mass, wet, root [2, 11]: 5.95 g/100 plantlings | Mass, wet, root, + % to control [2, 11]: −12% | Mass, wet, sprout [2, 11]: 4.34 g/100 plantlings | Mass, wet, sprout, + % to control [2, 11]: −5% | Length, root [2, 12]: 4.9 cm | Length, root, + % to control [2, 12]: 4% | Length, sprout [2, 12]: 2.6 cm | Length, sprout, + % to control [2, 12]: −7% | Mass, dry, root [2, 12]: 1.03 g/100 plantlings | Mass, dry, root, + % to control [2, 12]: −15.5% | Mass, dry, sprout [2, 12]: 0.77 g/100 plantlings | Mass, dry, sprout, + % to control [2, 12]: 7% | Mass, wet, root [2, 12]: 6.72 g/100 plantlings | Mass, wet, root, + % to control [2, 12]: −1% | Mass, wet, sprout [2, 12]: 4.62 g/100 plantlings | Mass, wet, sprout, + % to control [2, 12]: 1% | Length, root [2, 13]: 5.0 cm | Length, root, + % to control [2, 13]: 6% | Length, sprout [2, 13]: 2.8 cm | Length, sprout, + % to control [2, 13]: 0% | Mass, dry, root [2, 13]: 1.18 g/100 plantlings | Mass, dry, root, + % to control [2, 13]: −3% | Mass, dry, sprout [2, 13]: 0.86 g/100 plantlings | Mass, dry, sprout, + % to control [2, 13]: 19% | Mass, wet, root [2, 13]: 6.93 g/100 plantlings | Mass, wet, root, + % to control [2, 13]: 2% | Mass, wet, sprout [2, 13]: 4.74 g/100 plantlings | Mass, wet, sprout, + % to control [2, 13]: 4% | Length, root [2, 14]: 5.2 cm | Length, root, + % to control [2, 14]: 11% | Length, sprout [2, 14]: 3.0 cm | Length, sprout, + % to control [2, 14]: 7% | Mass, dry, root [2, 14]: 1.25 g/100 plantlings | Mass, dry, root, + % to control [2, 14]: 2% | Mass, dry, sprout [2, 14]: 0.69 g/100 plantlings | Mass, dry, sprout, + % to control [2, 14]: 26% | Mass, wet, root [2, 14]: 7.08 g/100 plantlings | Mass, wet, root, + % to control [2, 14]: 4% | Mass, wet, sprout [2, 14]: 4.91 g/100 plantlings | Mass, wet, sprout, + % to control [2, 14]: 7% | Length, root [2, 15]: 5.5 cm | Length, root, + % to control [2, 15]: 17% | Length, sprout [2, 15]: 3.1 cm | Length, sprout, + % to control [2, 15]: 11% | Mass, dry, root [2, 15]: 1.30 g/100 plantlings | Mass, dry, root, + % to control [2, 15]: 6.5% | Mass, dry, sprout [2, 15]: 1.12 g/100 plantlings | Mass, wet, root [2, 15]: 7.19 g/100 plantlings | Mass, wet, sprout [2, 15]: 5.35 g/100 plantlings | Mass, wet, sprout, + % to control [2, 15]: 17% | Length, root [2, 16]: 5.3 cm | Length, root, + % to control [2, 16]: 13% | Length, sprout [2, 16]: 2.9 cm | Length, sprout, + % to control [2, 16]: 3.5% | Mass, dry, root [2, 16]: 1.26 g/100 plantlings | Mass, dry, root, + % to control [2, 16]: 3% | Mass, dry, sprout [2, 16]: 0.92 g/100 plantlings | Mass, dry, sprout, + % to control [2, 16]: 28% | Mass, wet, root [2, 16]: 6.88 g/100 plantlings | Mass, wet, root, + % to control [2, 16]: 1% | Mass, wet, sprout [2, 16]: 4.99 g/100 plantlings | Mass, wet, sprout, + % to control [2, 16]: 9% | Length, root [2, 17]: 4.6 cm | Length, root, + % to control [2, 17]: −2% | Length, sprout [2, 17]: 2.6 cm | Length, sprout, + % to control [2, 17]: −7% | Mass, dry, root [2, 17]: 0.95 g/100 plantlings | Mass, dry, root, + % to control [2, 17]: −22% | Mass, dry, sprout [2, 17]: 0.80 g/100 plantlings | Mass, dry, sprout, + % to control [2, 17]: 11% | Mass, wet, root [2, 17]: 6.12 g/100 plantlings | Mass, wet, root, + % to control [2, 17]: −10% | Mass, wet, sprout [2, 17]: 4.37 g/100 plantlings | Mass, wet, sprout, + % to control [2, 17]: −4% | effectiveness on germinating power ([2]; corn, 1·10^−6% and 1·10^−12% solutions): ineffective | Length, root, + % to control ([2]; corn, 1·10^−10% solution): 17% | Length, sprout, + % to control ([2]; corn, 1·10^−10% solution): 11% | Mass, dry, root, + % to control ([2]; corn, 1·10^−10% solution): 6.5% | Mass, dry, sprout, + % to control ([2]; corn, 1·10^−10% solution): 55.5% | Mass, wet, root, + % to control ([2]; corn, 1·10^−10% solution): 6% | Mass, wet, sprout, + % to control ([2]; corn, 1·10^−10% solution): 17% | Germination energy, % (rice (Diamant variety); [18]): 85.0% | Germination rate, % (rice (Diamant variety); [18]): 92.0% | Germination energy (rice (Diamant variety); rice, 1·10^−11% solution): 84.0% | Germination rate (rice (Diamant variety); rice, 1·10^−11% solution): 90.3% | Germination energy (rice (Diamant variety); [19]): 74.7% | Germination rate (rice (Diamant variety); [19]): 80.3% | Germination energy (rice (Diamant variety); [20]): 76.7% | Germination rate (rice (Diamant variety); [20]): 82.8% | Germination energy (rice (Diamant variety); [21]): 78.3% | Germination rate (rice (Diamant variety); [21]): 84.0% | Germination energy (rice (Diamant variety); [22]): 80.0% | Germination rate (rice (Diamant variety); [22]): 86.3% | Germination energy (rice (Diamant variety); [23]): 82.3% | Germination rate (rice (Diamant variety); [23]): 88.0% | Germination energy (rice (Diamant variety); [24]): 84.0% | Germination rate (rice (Diamant variety); [24]): 90.3% | Germination energy (rice (Diamant variety); [25]): 79.0% | Germination rate (rice (Diamant variety); [25]): 85.3%
